Read-outs that look alike come from different tables or passages of the source.
Experiment: Solubility of Diamine in various kinds of solvents
Format: physicochemical
Conditions: for solubility: organic solvent or mixture, thermodynamic from solid, Sample 30 mg/solvent 2 mL
Protocol: Melting points and solubilities in various kinds of solvents of the diamines obtained in the above-described Examples and Comparative Examples are shown in Table 1 below. In the following Table 1, the evaluation +++ indicates soluble at room temperature, the evaluation ++ indicates soluble by heating, the evaluation + indicates half-soluble by heating, and the evaluation − indicates insoluble in solvent.
Sample 30 mg/solvent 2 mL, the evaluation +++ indicates soluble at room temperature, the evaluation ++ indicates soluble by heating, the evaluation + indicates half-soluble by heating, and the evaluation − indicates insoluble.

[1] = MC (methyl cellosolve), MC (methyl cello solve), read-out: Solubility in MC
[2] = Acetone, read-out: Solubility in Acetone
[3] = Acetonitrile, read-out: Solubility in Acetonitrile
[4] = Chloroform, read-out: Solubility in Chloroform
[5] = DMF (N,N-dimethylformamide), read-out: Solubility in DMF
[6] = DMSO (dimethylsulfoxide), read-out: Solubility in DMSO
[7] = Ethyl acetate, read-out: Solubility in Ethyl acetate
[8] = Isopropanol, read-out: Solubility in Isopropanol
[9] = Methanol, read-out: Solubility in Methanol
[10] = THF, read-out: Solubility in THF
[11] = Toluene, read-out: Solubility in Toluene
[12] = m-cresol, read-out: Solubility in m-cresol

Row | Compound | solubility [1] [mg/mL] | solubility [2] [mg/mL] | solubility [3] [mg/mL] | solubility [4] [mg/mL] | solubility [5] [mg/mL] | solubility [6] [mg/mL] | solubility [7] [mg/mL] | solubility [8] [mg/mL] | solubility [9] [mg/mL] | solubility [10] [mg/mL] | solubility [11] [mg/mL] | solubility [12] [mg/mL] | Solubility in the various kinds of solvents (in words)
1 | Nc1ccc(C(=O)Oc2ccc(OC(=O)c3ccc(N)cc3)cc2)cc1 [Com. Ex. 1, 1,4-bis(4-aminobenzoyloxy)benzene, reference compound] | < 15 | < 15 | < 15 | < 15 | < 15 | < 15 | < 15 | < 15 |  | < 15 | < 15 | < 15 | hot-dissolved only in DMF
2 | Nc1cccc(C(=O)Oc2ccc(S(=O)(=O)c3ccc(OC(=O)c4cccc(N)c4)cc3)cc2)c1 [Example 4, bis[4-(3-aminobenzoyloxy)phenyl]sulfone] | < 15 | < 15 | < 15 | < 15 | > 15 | > 15 | < 15 | < 15 | < 15 | < 15 | < 15 | > 15 | 
3 | Cc1cc(OC(=O)c2ccc(N)cc2)ccc1OC(=O)c1ccc(N)cc1 [Com. Ex. 2, 2,5-bis(4-aminobenzoyloxy)toluene, reference compound] | < 15 | < 15 | < 15 | < 15 | > 15 | < 15 | < 15 | < 15 | < 15 | < 15 | < 15 | < 15 | hot-dissolved barely in a high-polar solvent
4 | Nc1cccc(C(=O)Oc2ccc(C(c3ccc(OC(=O)c4cccc(N)c4)cc3)(C(F)(F)F)C(F)(F)F)cc2)c1 [Example 2, 2,2′-bis[4-(3-aminobenzoyloxy)phenyl]hexafluoropropane] | > 15 | > 15 | > 15 | < 15 | > 15 | > 15 | > 15 | < 15 | > 15 | > 15 | < 15 | > 15 | easily dissolved in various solvents

Now from value to compound, other results behind:

Row | solubility [1] [mg/mL] | solubility [2] [mg/mL] | solubility [3] [mg/mL] | solubility [4] [mg/mL] | solubility [5] [mg/mL] | solubility [6] [mg/mL] | solubility [7] [mg/mL] | solubility [8] [mg/mL] | solubility [9] [mg/mL] | solubility [10] [mg/mL] | solubility [11] [mg/mL] | solubility [12] [mg/mL] | Compound | Solubility in the various kinds of solvents (in words)
5 | > 15 | > 15 | > 15 | > 15 | > 15 | > 15 | > 15 | < 15 | < 15 | > 15 | < 15 | > 15 | Cc1cc(OC(=O)c2cccc(N)c2)ccc1OC(=O)c1cccc(N)c1 [Example 6, 1-methyl-2,5-bis(3-aminobenzoyloxy)benzene] | 
6 | > 15 | > 15 | > 15 | > 15 | > 15 | > 15 | > 15 | < 15 | < 15 | > 15 | < 15 | > 15 | Cc1cc(OC(=O)c2cccc(N)c2)c(C)c(C)c1OC(=O)c1cccc(N)c1 [Example 8, 1,2,4-trimethyl-3,6-bis(3-aminobenzoyloxy)benzene] | 

From patent publication US20240239741A1, “META-ESTER AROMATIC DIAMINES, METHOD FOR PRODUCING SAME, AND POLYIMIDE HAVING SAID META-ESTER AROMATIC DIAMINES AS RAW MATERIAL” (SEIKA CORPORATION, priority 2021, published 2024)
